For test [1], the system named is C. albicans strain SC5314. In words: High-throughput screening (HTS) with antifungal susceptibility test, CellTiter-Glo ATP read-out. In kind it is cell-based, Candida albicans. The following applies: for inhibition at 10 µM: Candida albicans, SC5314, 24 h. As for the experimental part:
(§1) The in vitro susceptibility of well-characterized wild-type C. albicans strain SC5314, which was provided by Prof. N.A.R. Gow (University of Aberdeen, Aberdeen, UK) was tested against 1280 compounds from the Library of Pharmacologically Active Compounds (LOPAC^1280TM, Sigma–Aldrich, USA). The screen was performed with C. albicans SC5314, and hits were further confirmed with the type strains C. dubliniensis MYA 577, C. glabrata ATCC 2001, C. kusei ATCC 6258, C. palapsilosis ATCC 22019, and C. tropicalis ATCC13803.
High-Throughput Screening was conducted using ASTs, according to the standard Clinical and Laboratory Standard Institute (CLSI) method ([Watamoto et al., 2009]). Inocula from 24-h yeast cultures on Sabouraud’s dextrose agar (SDA) (Gibco, UK) were adjusted to a turbidity equivalent to a 0.5 McFarland standard at 520 nm using a spectrophotometer. The suspension was diluted further with RPMI 1640 medium (Gibco, UK) to yield an inoculum concentration of 0.5 × 10^3 to 2.5 × 10^3 cells/mL. C. albicans was incubated with small-molecule compounds (10 μM) from LOPAC^1280TM, which total volume was 150 μL, in 96-well plates at 37°C for 24 h to evaluate the antifungal effects. After incubation, the viability of the fungal cells was determined using the CellTiter-Glo luminescent cell viability kit (Promega, USA). The CellTiter-Glo reagent (150 μL) was added to the medium and incubated for 15 min at room temperature with shaking at 900 rpm. The luminescent signals were detected using a luminometer (GloMax Discover System, Promega, USA). The resulting signal intensity corresponds to ATP amounts and thus to the number of viable microbial cells upon drug exposure ([Stylianou et al., 2014]). In all 96-well plates, 100 and 0% growth controls were included as microbes plus dimethyl sulfoxide (0.1%) and microbes plus amphotericin B (100 μM), respectively. All assays were performed at least as two biological replicates in triplicate. The ATP level of C. albicans cells, which corresponded to the cell metabolic activity and viability, was calculated for each compound using the following equation (Figure 1A).
Percentageinhibition=100 × 1-{(experimental-positivecontrolaverage)/(negativecontrolaverage-positivecontrolaverage)}
Wells were scored as hits if the percentage inhibition was >50%. Hit compounds were evaluated further to assess their antifungal effects.

Test [2] deals with C. albicans SC5314. In words: AST broth microdilution, high cell density planktonic mode. In kind it is cell-based, Candida albicans. To be noted: 50% MIC, planktonic mode, 1 × 10^7 cells/mL, 24 h, read-out: Minimum inhibitory concentration (MIC). As for the experimental part:
as §1
(§2) To investigate the antifungal effects of the hit compounds, ASTs were conducted using broth microdilution assays with high cell densities of the planktonic mode, adhesion phase and biofilm mode against Candida strains (C. albicans, C. dubliniensis, C. glabrata, C. kusei, C. palapsilosis, and C. tropicalis). First, high density cell (1 × 10^7 cells/mL) suspensions were added to the RPMI medium containing each hit compound (10–1000 μM) in 96-well plates and incubated at 37°C for 24 h. Next, the 50% minimum inhibitory concentrations (MICs) of high-density Candida planktonic cultures were determined using the CellTiter-Glo luminescent cell viability kit, as described above. The antifungal effects of the hit compounds were also evaluated in the adhesion phase and the biofilm mode, in the same manner as the planktonic mode. Candida biofilms were produced as described previously ([Jin et al., 2004]). In brief, Candida cells were grown on SDA at 37°C for 18 h. A loopful of the yeast culture was then inoculated into yeast nitrogen base (YNB) (Difco, USA) medium supplemented with 50 mM glucose. After overnight broth culture in a rotary shaker at 75 rpm, the cells were washed twice with 20 mL of PBS (pH 7.2, 0.1 M). The yeast cells were re-suspended in YNB supplemented with 100 mM glucose and adjusted to an optical density of 0.38 (1 × 10^7 cells/mL) at 520 nm. This standardized cell suspension was used immediately to form biofilms in the wells of 96-well polystyrene culture plates (Iwaki, Tokyo, Japan). First, the cells were incubated for 90 min at 37°C in a shaker at 75 rpm to allow yeast adherence to the well surface (adhesion phase), before the medium was aspirated and each well was washed once with PBS to remove non-adherent cells. YNB containing 100 mM glucose was then pipetted into each well and the plate was incubated at 37°C in a shaker at 75 rpm for 24 h. Non-adherent cells were removed by pipetting and the biofilms were washed twice with PBS. Following this biofilm growth phase, microscopic examination of the cultures was performed to exclude contamination. These ASTs were repeated on three different occasions.
(In general: Broth dilution looks for growth in wells or tubes with falling amounts of substance.)

For test [3], the system named is C. albicans SC5314. Nature of the test: AST, adhesion phase. In kind it is cell-based. The following applies: Candida albicans, SC5314, 1.5 h; adhesion phase (90 min adherence); read-out: Minimum inhibitory concentration (MIC). As for the experimental part:
as §1, §2

The test system of test [4] is C. albicans SC5314 biofilm. Nature of the test: AST, biofilm mode. In kind it is cell-based. The following applies: Candida albicans, SC5314; biofilm mode (24 h biofilm); read-out: Minimum inhibitory concentration (MIC). As for the experimental part: as §1, §2
The mark [5] stands for this setting: compound 10 μM, 0.5 × 10^3 to 2.5 × 10^3 cells/mL, 37°C, 24 h.

The structures appear in SMILES notation. ≈ marks a conversion by molar mass, not a printed value. Counter-ions that a name gives are not always drawn. Like-named read-outs stand apart in the source and are kept apart here.

`CN[C@@H]1C[C@@H](c2ccc(Cl)c(Cl)c2)c2ccccc21` [Indatraline hydrochloride]: in test [1] (read-out: percent inhibition of the metabolic activity (ATP level) of C. albicans, compound 10 μM, 0.5 × 10^3 to 2.5 × 10^3 cells/mL, 37°C, 24 h), the inhibition at 10 µM was determined as 85.2%.
For `COc1ccc2c(c[n+](C)c3c4cc5c(cc4ccc23)OCO5)c1OC` [Chelerythrine chloride], the inhibition at 10 µM in test [1] (compound 10 μM, 0.5 × 10^3 to 2.5 × 10^3 cells/mL, 37°C, 24 h, read-out: percent inhibition of the metabolic activity (ATP level) of C. albicans) came to 82.4%.
Take `Cc1cc(N)c2ccccc2[n+]1CCCCCCCCCC[n+]1c(C)cc(N)c2ccccc21.O.[Cl-].[Cl-]` [Dequalinium chloride hydrate]: the “percent inhibition of the metabolic activity (ATP level) of C. albicans” value in test [1] (setting [5]) amounted to 71.5%.
In the case of `C[C@@H]1[C@H](O)[C@@H](C)/C=C/C=C/C=C/C=C/C=C/C=C/C=C/[C@H](O[C@@H]2O[C@H](C)[C@@H](O)[C@H](N)[C@@H]2O)C[C@@H]2O[C@](O)(C[C@@H](O)C[C@@H](O)[C@H](O)CC[C@@H](O)C[C@@H](O)CC(=O)O[C@H]1C)C[C@H](O)[C@H]2C(=O)O` [AMB, amphotericin B], the MIC was 3.9 µM (≈ 3.6 µg/mL) in test [2]; below 3.9 µM in test [2] (Candida albicans, SC5314, 24 h); 15.6 µM (≈ 14.4 µg/mL) in test [3]; 62.5 µM (≈ 57.8 µg/mL) in test [4].
In the case of `CCCCCCCCCCCCCCCC(=O)OC(CC(=O)O)C[N+](C)(C)C.[Cl-]` (racemic) [Palmitoyl-DL-carnitine chloride], the “percent inhibition of the metabolic activity (ATP level) of C. albicans” value in test [1] (setting [5]) is 76.0%.

For the origin of these results see article PMC4686731, “Screening of Pharmacologically Active Small Molecule Compounds Identifies Antifungal Agents Against Candida Biofilms” (Frontiers in Microbiology, 2015).
